Experimental data from ChEMBL document CHEMBL3751783, “Straightforward and effective synthesis of γ-aminobutyric acid transporter subtype 2-selective acyl-substituted azaspiro[4.5]decanes” (Bioorg Med Chem Lett, 2016).

Experiments:
Format in all cases: cell-based
[1] = molecular target: T1, GABA transporter 2 (Mus musculus, UniProt P31651); assay: Inhibition of mouse BGT1 mediated [3]GABA uptake expressed in HEK293 cells after 3 mins by scintillation counting
T1 sequence (P31651 whole entry): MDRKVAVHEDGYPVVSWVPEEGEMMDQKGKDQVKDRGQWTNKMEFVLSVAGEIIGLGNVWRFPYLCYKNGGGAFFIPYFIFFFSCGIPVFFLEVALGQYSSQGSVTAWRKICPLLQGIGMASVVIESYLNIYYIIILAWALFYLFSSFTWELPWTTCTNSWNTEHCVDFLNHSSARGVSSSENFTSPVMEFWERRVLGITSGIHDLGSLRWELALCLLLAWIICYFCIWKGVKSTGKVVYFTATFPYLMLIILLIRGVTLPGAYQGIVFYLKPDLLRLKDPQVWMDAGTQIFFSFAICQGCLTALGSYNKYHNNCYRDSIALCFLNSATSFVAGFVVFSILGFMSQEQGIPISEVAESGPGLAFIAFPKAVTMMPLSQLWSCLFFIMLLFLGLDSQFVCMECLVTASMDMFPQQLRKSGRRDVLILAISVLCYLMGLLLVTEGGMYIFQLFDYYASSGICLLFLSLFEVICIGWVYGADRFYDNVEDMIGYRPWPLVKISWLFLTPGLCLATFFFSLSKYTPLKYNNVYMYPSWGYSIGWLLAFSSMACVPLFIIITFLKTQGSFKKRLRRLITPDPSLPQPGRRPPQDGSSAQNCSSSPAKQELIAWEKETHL

[2] = molecular target: Sodium- and chloride-dependent GABA transporter 1 (Mus musculus, UniProt P31648); assay: Inhibition of mouse GAT1 mediated [3]GABA uptake expressed in HEK293 cells after 3 mins by scintillation counting
[3] = molecular target: T2, GABA transporter 3 (Mus musculus, UniProt P31649); assay: Inhibition of mouse GAT2 mediated [3]GABA uptake expressed in HEK293 cells after 3 mins by scintillation counting
T2 sequence (P31649 whole entry): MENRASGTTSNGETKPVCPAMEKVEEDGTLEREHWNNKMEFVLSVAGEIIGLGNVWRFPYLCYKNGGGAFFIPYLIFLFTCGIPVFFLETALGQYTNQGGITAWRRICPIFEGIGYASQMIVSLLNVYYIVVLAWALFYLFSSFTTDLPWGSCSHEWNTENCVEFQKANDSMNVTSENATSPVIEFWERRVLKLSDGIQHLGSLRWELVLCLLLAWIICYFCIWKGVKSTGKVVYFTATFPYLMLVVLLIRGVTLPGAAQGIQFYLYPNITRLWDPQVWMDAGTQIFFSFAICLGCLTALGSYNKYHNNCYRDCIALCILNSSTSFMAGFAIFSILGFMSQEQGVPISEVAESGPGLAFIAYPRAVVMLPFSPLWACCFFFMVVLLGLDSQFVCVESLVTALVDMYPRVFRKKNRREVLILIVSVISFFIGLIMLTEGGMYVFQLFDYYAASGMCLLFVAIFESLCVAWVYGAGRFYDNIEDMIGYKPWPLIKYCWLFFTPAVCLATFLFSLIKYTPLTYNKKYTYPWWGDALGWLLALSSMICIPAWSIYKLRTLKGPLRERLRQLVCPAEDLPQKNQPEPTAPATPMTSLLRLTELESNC

COc1ccc(C(OCCN2CCC[C@H](C(=O)O)C2)(c2ccc(OC)cc2)c2ccc(OC)cc2)cc1
IC50 [1]: > 1000 µM

O=C1CCC2(CCCCC2)N1
IC50 [2]: > 5000 µM
IC50 [1]: > 5000 µM
IC50 [3]: > 5000 µM

O=C(CI)N1C(=O)CCC12CCCCC2
IC50 [2]: > 1000 µM
IC50 [1]: > 1000 µM
IC50 [3]: > 1000 µM

CCOC(=O)C1CCCN(CCC(=O)N2C(=O)CCC23CCCCC3)C1 (stereo not given)
IC50 [2]: > 1000 µM
IC50 [1]: 164 µM
IC50 [3]: > 1000 µM

O=C(CCN1CCOCC1)N1C(=O)CCC12CCCCC2
IC50 [2]: > 1000 µM
IC50 [1]: > 1000 µM
IC50 [3]: > 1000 µM

O=C(CCN1CCNCC1)N1C(=O)CCC12CCCCC2
IC50 [2]: > 1000 µM
IC50 [1]: > 1000 µM
IC50 [3]: > 1000 µM

O=C1CCC2(CCCCC2=O)N1 (stereo not given)
IC50 [2]: > 1000 µM
IC50 [1]: > 1000 µM
IC50 [3]: > 1000 µM

O=C1CCC2(CCCC23OCCO3)N1 (stereo not given)
IC50 [2]: > 1000 µM
IC50 [1]: > 1000 µM
IC50 [3]: > 1000 µM

C=CC(=O)N1CCCC12CCCCC2
IC50 [2]: > 5000 µM
IC50 [1]: > 5000 µM
IC50 [3]: 3020 µM

O=C(CCN1CCOCC1)N1CCCC12CCCCC2
IC50 [2]: > 5000 µM
IC50 [1]: > 5000 µM
IC50 [3]: > 5000 µM

CCOC(=O)C1CCCN(CCC(=O)N2CCCC23CCCCC3)C1 (stereo not given)
IC50 [2]: > 5000 µM
IC50 [1]: > 5000 µM
IC50 [3]: 2330 µM

O=C1C=CC2(CCCC23OCCO3)N1C(=O)CCN1CCNCC1 (stereo not given)
IC50 [2]: > 1000 µM
IC50 [1]: > 1000 µM
IC50 [3]: > 1000 µM

O=C1C=CC2(CCCC23OCCO3)N1C(=O)CCN1CCOCC1 (stereo not given)
IC50 [2]: > 1000 µM
IC50 [1]: > 1000 µM
IC50 [3]: > 1000 µM

C=CC(=O)N1C(=O)C=CC12CCCC21OCCO1 (stereo not given)
IC50 [2]: > 1000 µM
IC50 [1]: > 1000 µM
IC50 [3]: > 1000 µM

C=CCN1C(=O)CCC12CCCC21OCCO1 (stereo not given)
IC50 [2]: > 1000 µM
IC50 [1]: > 1000 µM
IC50 [3]: > 1000 µM

O=C(O)C1=CCCN(CCON=C(c2ccccc2)c2ccccc2)C1
IC50 [2]: 0.18 µM
IC50 [1]: > 1000 µM
IC50 [3]: > 1000 µM

C=CC(=O)N1C(=O)CCC12CCCCC2=O (stereo not given)
IC50 [2]: > 1000 µM
IC50 [1]: > 1000 µM
IC50 [3]: > 1000 µM

C1CCC2(CC1)CCCN2
IC50 [2]: > 5000 µM
IC50 [1]: > 5000 µM
IC50 [3]: > 5000 µM

O=C(O)C1=CCCNC1 [GUVACINE]
IC50 [2]: 20.9 µM
IC50 [1]: > 1000 µM
IC50 [3]: 72.4 µM

CCOC(=O)C1CCCN(CCC(=O)N2C(=O)C=CC23CCCC32OCCO2)C1 (stereo not given)
IC50 [2]: > 1000 µM
IC50 [1]: > 1000 µM
IC50 [3]: > 1000 µM

O=C(CCN1CCCCC1)N1CCCC12CCCCC2
IC50 [2]: > 5000 µM
IC50 [1]: > 5000 µM
IC50 [3]: > 5000 µM

CCN(CC)CCC(=O)N1CCCC12CCCCC2
IC50 [2]: > 1000 µM
IC50 [1]: > 1000 µM
IC50 [3]: > 1000 µM

O=C(CCl)N1C(=O)CCC12CCCCC2
IC50 [2]: > 1000 µM
IC50 [1]: > 1000 µM
IC50 [3]: > 1000 µM

COC(=O)C1=CCCN(CCC(=O)N2CCCC23CCCCC3)C1
IC50 [2]: 2050 µM
IC50 [1]: 2300 µM
IC50 [3]: 3230 µM

C=CC(=O)N1C(=O)CCC12CCCCC2
IC50 [2]: 371 µM
IC50 [1]: 103 µM
IC50 [3]: > 1000 µM

O=C(CBr)N1C(=O)CCC12CCCCC2
IC50 [2]: 371 µM
IC50 [1]: 103 µM
IC50 [3]: > 1000 µM

O=C(CCN1CCNCC1)N1CCCC12CCCCC2
IC50 [2]: > 1000 µM
IC50 [1]: > 1000 µM
IC50 [3]: > 1000 µM

O=C(CCN1CCCC1)N1C(=O)CCC12CCCCC2
IC50 [2]: > 1000 µM
IC50 [1]: > 1000 µM
IC50 [3]: > 1000 µM

O=C(CCN1CCCCC1)N1C(=O)CCC12CCCCC2
IC50 [2]: > 1000 µM
IC50 [1]: > 1000 µM
IC50 [3]: > 1000 µM

O=C(CBr)N1C(=O)CCC12CCCCC2=O (stereo not given)
IC50 [2]: > 1000 µM
IC50 [1]: > 1000 µM
IC50 [3]: > 1000 µM

[N-]=[N+]=NCC(=O)N1C(=O)CCC12CCCCC2
IC50 [2]: > 1000 µM
IC50 [1]: > 1000 µM
IC50 [3]: > 1000 µM

O=C(CBr)N1CCCC12CCCCC2
IC50 [2]: 233 µM
IC50 [1]: > 5000 µM
IC50 [3]: > 5000 µM

CCN(CC)CCC(=O)N1C(=O)CCC12CCCCC2
IC50 [2]: > 1000 µM
IC50 [1]: > 1000 µM
IC50 [3]: > 1000 µM

O=C(CCN1CCCC1)N1CCCC12CCCCC2
IC50 [2]: > 5000 µM
IC50 [1]: > 5000 µM
IC50 [3]: > 5000 µM
